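At the GI50, growth is halved. TGI: concentration producing complete growth inhibition.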
What was measured:
Assay in all cases: growth of human tumour cells (NCI), 384-well format
[1] = tested on: SK-MEL-5 melanoma
[2] = tested on: NCI-H23 lung
[3] = tested on: MCF7 breast
[4] = tested on: NCI/ADR-RES ovarian
[5] = tested on: SR leukemia
[6] = tested on: SN12C renal
[7] = tested on: HCC-2998 colon
[8] = tested on: OVCAR-8 ovarian
[9] = tested on: DU-145 prostate
[10] = tested on: SF-268 CNS
[11] = tested on: HL-60(TB) leukemia
[12] = tested on: ACHN renal
[13] = tested on: HS 578T breast
[14] = tested on: SK-MEL-28 melanoma
[15] = tested on: T-47D breast
[16] = tested on: RXF 393 renal
[17] = tested on: MALME-3M melanoma
[18] = tested on: OVCAR-3 ovarian
[19] = tested on: SNB-19 CNS
[20] = tested on: M14 melanoma
[21] = tested on: KM12 colon
[22] = tested on: HOP-92 NSCLC
[23] = tested on: HT29 colon
[24] = tested on: SK-OV-3 ovarian
[25] = tested on: MDA-MB-435 melanoma
[26] = tested on: PC-3 prostate
[27] = tested on: UACC-62 melanoma
[28] = tested on: MOLT-4 leukemia
[29] = tested on: HOP-62 NSCLC
[30] = tested on: SNB-75 CNS
[31] = tested on: RPMI-8226 leukemia
[32] = tested on: NCI-H226 lung
[33] = tested on: U251 glioblastoma
[34] = tested on: A549 NSCLC
[35] = tested on: SF-295 CNS
[36] = tested on: MDA-MB-231 breast
[37] = tested on: COLO 205 colon
[38] = tested on: MDA-MB-468 breast
[39] = tested on: IGROV1 ovarian
[40] = tested on: LOX IMVI melanoma
[41] = tested on: HCT-116 colon
[42] = tested on: NCI-H322M lung
[43] = tested on: NCI-H522 lung
[44] = tested on: HCT-15 colon
[45] = tested on: OVCAR-5 ovarian
[46] = tested on: OVCAR-4 ovarian
[47] = tested on: SF-539 CNS
[48] = tested on: TK-10 renal
[49] = tested on: BT-549 breast
[50] = tested on: A498 renal
[51] = tested on: NCI-H460 NSCLC
[52] = tested on: UACC-257 melanoma
[53] = tested on: EKVX NSCLC
[54] = tested on: CAKI-1 renal
[55] = tested on: SW-620 colon
[56] = tested on: K-562 leukemia
[57] = tested on: SK-MEL-2 melanoma
[58] = tested on: 786-0 renal
[59] = tested on: UO-31 renal

For `NC(=O)c1ccc(N(C(N)=O)c2c(F)cccc2F)nc1-c1ccc(F)cc1F`, the GI50 [1] was greater than 100 µM, the TGI [1] was greater than 100 µM and the GI50 [2] was greater than 100 µM. It also gave a TGI [2] greater than 100 µM, a GI50 [3] greater than 100 µM and a TGI [3] greater than 100 µM. For the same compound, the GI50 [4] was greater than 100 µM, the TGI [4] was greater than 100 µM and the GI50 [5] was 98.2 µM. For the same compound, the TGI [5] was greater than 100 µM, the GI50 [6] was greater than 100 µM and the TGI [6] was greater than 100 µM. The GI50 [7] was greater than 100 µM, the TGI [7] was greater than 100 µM and the GI50 [8] was greater than 100 µM. It also gave a TGI [8] greater than 100 µM, a GI50 [9] greater than 100 µM and a TGI [9] greater than 100 µM. It also gave a GI50 [10] greater than 100 µM, a TGI [10] greater than 100 µM and a GI50 [11] greater than 100 µM. The TGI [11] was greater than 100 µM, the GI50 [12] was greater than 100 µM and the TGI [12] was greater than 100 µM. For the same compound, the GI50 [13] was greater than 100 µM, the TGI [13] was greater than 100 µM and the GI50 [14] was greater than 100 µM. The TGI [14] was greater than 100 µM, the GI50 [15] was greater than 100 µM and the TGI [15] was greater than 100 µM. The GI50 [16] was greater than 100 µM, the TGI [16] was greater than 100 µM and the GI50 [17] was greater than 100 µM. For the same compound, the TGI [17] was greater than 100 µM, the GI50 [18] was greater than 100 µM and the TGI [18] was greater than 100 µM. The GI50 [19] was greater than 100 µM, the TGI [19] was greater than 100 µM and the GI50 [20] was greater than 100 µM. The TGI [20] was greater than 100 µM, the GI50 [21] was greater than 100 µM and the TGI [21] was greater than 100 µM. For the same compound, the GI50 [22] was greater than 100 µM, the TGI [22] was greater than 100 µM and the GI50 [23] was greater than 100 µM. It also gave a TGI [23] greater than 100 µM, a GI50 [24] greater than 100 µM and a TGI [24] greater than 100 µM. It also gave a GI50 [25] greater than 100 µM, a TGI [25] greater than 100 µM and a GI50 [26] greater than 100 µM. It also gave a TGI [26] greater than 100 µM, a GI50 [27] greater than 100 µM and a TGI [27] greater than 100 µM. For the same compound, the GI50 [28] was greater than 100 µM, the TGI [28] was greater than 100 µM and the GI50 [29] was greater than 100 µM. It also gave a TGI [29] greater than 100 µM, a GI50 [30] greater than 100 µM and a TGI [30] greater than 100 µM. For the same compound, the GI50 [31] was greater than 100 µM, the TGI [31] was greater than 100 µM and the GI50 [32] was greater than 100 µM. It also gave a TGI [32] greater than 100 µM, a GI50 [33] greater than 100 µM and a TGI [33] greater than 100 µM. It also gave a GI50 [34] greater than 100 µM, a TGI [34] greater than 100 µM and a GI50 [35] greater than 100 µM. The TGI [35] was greater than 100 µM, the GI50 [36] was greater than 100 µM and the TGI [36] was greater than 100 µM. The GI50 [37] was greater than 100 µM, the TGI [37] was greater than 100 µM and the GI50 [38] was greater than 100 µM. For the same compound, the TGI [38] was greater than 100 µM, the GI50 [39] was greater than 100 µM and the TGI [39] was greater than 100 µM. For the same compound, the GI50 [40] was greater than 100 µM, the TGI [40] was greater than 100 µM and the GI50 [41] was greater than 100 µM. The TGI [41] was greater than 100 µM, the GI50 [42] was greater than 100 µM and the TGI [42] was greater than 100 µM. It also gave a GI50 [43] greater than 100 µM, a TGI [43] greater than 100 µM and a GI50 [44] greater than 100 µM. The TGI [44] was greater than 100 µM, the GI50 [45] was greater than 100 µM and the TGI [45] was greater than 100 µM. It also gave a GI50 [46] greater than 100 µM, a TGI [46] greater than 100 µM and a GI50 [47] greater than 100 µM. For the same compound, the TGI [47] was greater than 100 µM, the GI50 [48] was greater than 100 µM and the TGI [48] was greater than 100 µM. For the same compound, the GI50 [49] was greater than 100 µM, the TGI [49] was greater than 100 µM and the GI50 [50] was greater than 100 µM. It also gave a TGI [50] greater than 100 µM, a GI50 [51] greater than 100 µM and a TGI [51] greater than 100 µM. For the same compound, the GI50 [52] was greater than 100 µM, the TGI [52] was greater than 100 µM and the GI50 [53] was greater than 100 µM. The TGI [53] was greater than 100 µM, the GI50 [54] was greater than 100 µM and the TGI [54] was greater than 100 µM.
In the case of `O=C(NOCCO)c1cc(CN2OCCCC2=O)c(F)c(F)c1Nc1ccc(I)cc1F`, the GI50 [1] is reported as less than 0.01 µM, the TGI [1] is reported as 17.5 µM and the GI50 [2] is reported as less than 0.01 µM. It also gave a TGI [2] of 0.371 µM, a GI50 [3] of 5.12 µM and a TGI [3] of 35.6 µM. It also gave a GI50 [5] of 2.12 µM, a TGI [5] of 11.1 µM and a GI50 [6] of 1.28 µM. It also gave a TGI [6] greater than 100 µM, a GI50 [8] of 4.6 µM and a TGI [8] of 25.5 µM. It also gave a GI50 [9] of 1.41 µM, a TGI [9] greater than 100 µM and a GI50 [10] of 24.8 µM. The TGI [10] was greater than 100 µM, the GI50 [55] was less than 0.01 µM and the TGI [55] was greater than 100 µM. It also gave a GI50 [11] of less than 0.01 µM, a TGI [11] of 10.6 µM and a GI50 [56] of 0.0276 µM. The TGI [56] was 17 µM, the GI50 [12] was 3.48 µM and the TGI [12] was greater than 100 µM. It also gave a GI50 [13] of 3.48 µM, a TGI [13] of 23.8 µM and a GI50 [14] of less than 0.01 µM. For the same compound, the TGI [14] was 0.0115 µM, the GI50 [57] was less than 0.01 µM and the TGI [57] was 0.019 µM. The GI50 [15] was 21.5 µM, the TGI [15] was 65.2 µM and the GI50 [16] was 0.498 µM. It also gave a TGI [16] of 7.61 µM, a GI50 [17] of less than 0.01 µM and a TGI [17] of less than 0.01 µM. For the same compound, the GI50 [18] was 10.2 µM, the TGI [18] was 39.6 µM and the GI50 [19] was 12.7 µM. It also gave a TGI [19] of 62.8 µM, a GI50 [20] of less than 0.01 µM and a TGI [20] of 0.0119 µM. For the same compound, the GI50 [21] was 1.71 µM, the TGI [21] was greater than 100 µM and the GI50 [22] was 0.179 µM. It also gave a TGI [22] of 1.72 µM, a GI50 [23] of less than 0.01 µM and a TGI [23] of 20.8 µM. It also gave a GI50 [24] of 8.12 µM, a TGI [24] of 55.4 µM and a GI50 [25] of less than 0.01 µM. It also gave a TGI [25] greater than 100 µM, a GI50 [26] of 34.4 µM and a TGI [26] greater than 100 µM. For the same compound, the GI50 [27] was less than 0.01 µM, the TGI [27] was 0.0869 µM and the GI50 [28] was 7.81 µM. The TGI [28] was 20.6 µM, the GI50 [58] was 11.6 µM and the TGI [58] was 42 µM. For the same compound, the GI50 [29] was 0.0251 µM, the TGI [29] was 64.6 µM and the GI50 [30] was 2.85 µM. For the same compound, the TGI [30] was 17.7 µM, the GI50 [32] was 0.0421 µM and the TGI [32] was 7.38 µM. It also gave a GI50 [33] of 0.209 µM, a TGI [33] of 17.8 µM and a GI50 [34] of 0.0535 µM. It also gave a TGI [34] of 10.9 µM, a GI50 [35] of 11.2 µM and a TGI [35] of 41.1 µM. The GI50 [36] was 0.0601 µM, the TGI [36] was greater than 100 µM and the GI50 [37] was less than 0.01 µM. It also gave a TGI [37] of 0.027 µM, a GI50 [38] of 2.56 µM and a TGI [38] of 13.8 µM. The GI50 [39] was 0.0179 µM, the TGI [39] was 7.87 µM and the GI50 [41] was 0.018 µM. For the same compound, the TGI [41] was 1.28 µM, the GI50 [42] was 0.0737 µM and the TGI [42] was 4.19 µM. The GI50 [43] was 5.97 µM, the TGI [43] was 30.2 µM and the GI50 [44] was 5.87 µM. The TGI [44] was greater than 100 µM, the GI50 [45] was less than 0.01 µM and the TGI [45] was greater than 100 µM. The GI50 [46] was 17.4 µM, the TGI [46] was greater than 100 µM and the GI50 [59] was 0.133 µM. It also gave a TGI [59] of 2.13 µM, a GI50 [47] of 0.554 µM and a TGI [47] of 4.03 µM. For the same compound, the GI50 [48] was 0.198 µM, the TGI [48] was 44.7 µM and the GI50 [49] was 6.65 µM. For the same compound, the TGI [49] was 72.1 µM, the GI50 [50] was 0.236 µM and the TGI [50] was 23.4 µM. It also gave a GI50 [51] of 0.0236 µM, a TGI [51] of 51.9 µM and a GI50 [52] of less than 0.01 µM. For the same compound, the TGI [52] was less than 0.01 µM, the GI50 [53] was 0.201 µM and the TGI [53] was 14.9 µM. It also gave a GI50 [54] of 0.059 µM and a TGI [54] of 24.9 µM.
